Assay results as given in paper PMC5656713 (Advances in Therapy, 2017).
Read-outs that look alike come from different tables or passages of the source.

Columns and labels:
[1] = clinical; conditions: male, human, in vivo, 600 mg
[2] = cited from earlier work
[3] = with concomitant ketoconazole 200 mg twice daily vs mifepristone 600 mg alone
[4] = system: glucocorticoid receptor; conditions: cited from earlier work
[5] = system: serum cortisol; assay: Fasting serum cortisol during mifepristone alone and plus ketoconazole; assay type: in vivo, human; conditions: day 13, predose, after mifepristone 600 mg alone
[6] = Safety and tolerability; assay type: in vivo, human
[7] = system: plasma ACTH; assay: Fasting plasma ACTH during mifepristone alone and plus ketoconazole; assay type: in vivo, human; conditions: day 13, predose, after mifepristone 600 mg alone
[8] = clinical; conditions: male, human, in vivo
[9] = male, human, in vivo

Row | Compound | half-life [1] [h] | half-life [2] | increase in systemic exposure based on GMR, AUC0–24 [3] [%] | affinity to the glucocorticoid receptor compared with 100% for mifepristone [4] [%] | Mean serum cortisol [5] [µg/dL] | subjects with at least one treatment-emergent AE ([6]; coadministration of mifepristone and ketoconazole (period 2), 8/14) [%] | subjects with at least one treatment-emergent AE ([6]; mifepristone alone (period 1), 9/16) [%] | serious AEs ([6]; whole study, mifepristone alone and plus ketoconazole) | Mean ACTH [7] [pg/mL] | Tmax ([8]; 200 mg) [h] | AUC(0-t) ([8]; AUC (AUC0–12) GLSM) [ng·h/mL] | Mean predose trough concentrations [9] [ng/mL]
1 | CC#C[C@]1(O)CC[C@H]2[C@@H]3CCC4=CC(=O)CCC4=C3[C@@H](c3ccc(N(C)C)cc3)C[C@@]21C [Mifepristone] | > 64 | ~ 85 h | 38 | 100 | 41.9 | 57.1 | 56.3 | No serious AEs | 148 | – | – | –
2 | CC(=O)N1CCN(c2ccc(OCC3COC(Cn4ccnc4)(c4ccc(Cl)cc4Cl)O3)cc2)CC1 (stereo not drawn) [Ketoconazole] | – | – | – | – | – | – | – | – | – | 3 | 37700 | 1353.07 to 1615.64
